Test results published in PMC8286817, “Identifying SARS-CoV-2 antiviral compounds by screening for small molecule inhibitors of Nsp14 RNA cap methyltransferase” (Biochemical Journal, 2021).
Like-named read-outs stand apart in the source and are kept apart here.

Legend:
SARS-CoV-2 [1] = test: microbe, parasite or virus in culture; format: cell-based
[2] = biological target: O-6′-methylguanine-DNA methyltransferase, MGMT; design: method as in PMID 16533784; settings: read-out: IC50 against MGMT; cited from earlier work
Vero E6 cells = test: Cell viability by DNA staining (DRAQ7) in the viral infection assay; format: cell-based; settings: 22 h post infection
Protocol: We assayed expression of the viral N protein as a surrogate for viral replication by infecting cells with a constant amount of SARS-CoV-2 in the presence of inhibitor. We then quantified viral replicative capacity in fixed cells 22 h post-infection using a fluorescent anti-nucleoprotein antibody.
1.5 × 10^3 Vero E6 cells (NIBC, U.K.) resuspended in DMEM containing 10% FBS were seeded into each well of 96-well imaging plates (Greiner 655090) and cultured overnight at 37°C and 5% CO2. The next day, a 5× solution of compounds were generated by dispensing 10 mM stocks of compounds into a v-bottom 96-well plate (Thermo 249946) and back filling with DMSO to equalise the DMSO concentration in all wells using an Echo 550 (Labcyte) before resuspending in DMEM containing 10% FBS. […] Finally, the cells were infected by adding 20 µl of SARS-CoV2 with a final MOI of 0.5 PFU/cell. 22 h post infection, cells were fixed, permeabilised, and stained for SARS-CoV2 N protein using Alexa488-labelled-CR3009 antibody produced custom (see section for Recombinant mAb production) and cellular DNA using DRAQ7 (ABCAM). Whole-well imaging at 5× was carried out using an Opera Phenix (PerkinElmer) and fluorescent areas and intensity calculated using the Phenix-associated software Harmony (PerkinElmer).

SARS-CoV-2 [3] = settings: remdesivir at 1 µM and below; cited from earlier work
[4] = biological target: nsp10–16 fusion 2′-O-methyltransferase (Severe acute respiratory syndrome coronavirus 2, UniProt P0DTD1); format: biochemical, SARS-CoV-2
SIRT1 = tested on: SIRT1; design: method as in PMID 22331558; settings: read-out: IC50 against SIRT1; cited from earlier work
[5] = Severe acute respiratory syndrome coronavirus 2, Vero C1008, Vero E6 cells, MOI 0.5 PFU/cell, 22 h, in additional presence of 0.5 µM remdesivir, read-out: EC50 + Rem. of viral replication (viral nucleoprotein area)
[6] = Vero E6 cells, 0.5 µM remdesivir versus compound alone

Compound: Nc1nc(OCc2cc(Br)cs2)c2[nH]cnc2n1 [Lomeguatrib]
- EC50 (SARS-CoV-2 [1]; Severe acute respiratory syndrome coronavirus 2, Vero C1008, 22 h, read-out: EC50 of viral replication (viral nucleoprotein area)): 59.8 µM
- EC50 (SARS-CoV-2 [1]; [5]): 44.1 µM
- EC50 reduction when combined with remdesivir (SARS-CoV-2 [1]; [6]): ~27%
- IC50 [2]: ~0.005 µM
- Cytotoxicity at effective / EC50 concentrations (DNA staining) (Vero E6 cells): slight cytotoxicity

Compound: N#Cc1ccc(N2N=C3c4ccc(C(=O)O)cc4CC[C@@H]3[C@@H]2C2CCCC2)cc1Cl [PF-03882845]
- EC50 reduction when combined with remdesivir (SARS-CoV-2 [1]): ~56%
- EC50 (SARS-CoV-2 [1]; read-out: EC50 + Rem. of viral replication (viral nucleoprotein area)): 4.79 µM
- EC50 (SARS-CoV-2 [1]; read-out: EC50 of viral replication (viral nucleoprotein area)): 11 µM

Compound: O=C(CCCN1CCC(O)(c2cccc(C(F)(F)F)c2)CC1)c1ccc(F)cc1 [Trifluperidol]
- EC50 (SARS-CoV-2 [1]; [5]): 5.05 µM
- EC50 (SARS-CoV-2 [1]; Severe acute respiratory syndrome coronavirus 2, Vero C1008, Vero E6 cells, MOI 0.5 PFU/cell, 22 h post infection, read-out: EC50 of viral replication (viral nucleoprotein area)): 14.9 µM
- EC50 reduction when combined with remdesivir (SARS-CoV-2 [1]; [6]): ~66%
- Cytotoxicity at effective / EC50 concentrations (DNA staining) (Vero E6 cells): little to no cytotoxicity

Compound: CCC(CC)COC(=O)[C@H](C)N[P@](=O)(OC[C@H]1O[C@@](C#N)(c2ccc3c(N)ncnn23)[C@H](O)[C@@H]1O)Oc1ccccc1 [remdesivir]
- Capacity to reduce viral titre in Vero E6 cells (SARS-CoV-2 [3]): limited capacity to reduce viral titre

Compound: Nc1ncnc2c1ncn2[C@@H]1O[C@H](C[C@@H](N)CC[C@H](N)C(=O)O)[C@@H](O)[C@H]1O [sinefungin]
- Inhibition of nsp10–16 methyltransferase (normalised HTRF) [4]: able to inhibit methyltransfer by nsp10–16

Compound: Inauhzin
- EC50 reduction when combined with remdesivir (SARS-CoV-2 [1]; [6]): no increased inhibitory capacity
- EC50 (SARS-CoV-2 [1]; Vero E6 cells, MOI 0.5 PFU/cell, 22 h, in additional presence of 0.5 µM remdesivir, read-out: EC50 + Rem. of viral replication (viral nucleoprotein area)): 11.2 µM
- EC50 (SARS-CoV-2 [1]; Vero E6 cells, MOI 0.5 PFU/cell, 22 h post infection, read-out: EC50 of viral replication (viral nucleoprotein area)): 13 µM
- IC50 (SIRT1): ~1 µM
- Cytotoxicity at effective / EC50 concentrations (DNA staining) (Vero E6 cells): little to no cytotoxicity
